Our source for the CC50, selectivity ratio and EC50 values is ChEMBL document CHEMBL3792372, “Modification of the length and structure of the linker of N(6)-benzyladenosine modulates its selective antiviral activity against enterovirus 71” (Eur J Med Chem, 2016).

Series [1] is described as follows: Cytotoxicity against human RD cells. Type of series: cell-based.
The nature of series [2]: Selectivity index, ratio of CC50 for human RD cells to EC50 for Enterovirus 71. As to conditions: read-out: Ratio CC50/EC50. Type of series: toxicity, cell-based.
The subject of series [3] is Enterovirus A71. Description: Antiviral activity against Enterovirus 71 infected in human RD cells assessed as cell viability after 3 days by MTS assay. As to conditions: Enterovirus A, 72 h. The format is functional, organism-based.
For series [4], the system named is Enterovirus A71. Description: Antiviral activity against Enterovirus 71 isolate TW/2429/04 infected in human RD cells assessed as cell viability after 3 days by MTS assay. The format is functional, organism-based. As to conditions: Enterovirus A, isolate TW/2429/04, RD, 72 h.
In series [5] the test system is Enterovirus A71. Description: Antiviral activity against Enterovirus 71 clinical isolate TW/70902/08 infected in human RD cells assessed as cell viability after 3 days by MTS assay. The format is functional, organism-based. The conditions noted are these: Enterovirus A, isolate TW/70902/08, RD, 72 h.
Series [6] deals with Enterovirus A71. Description: Antiviral activity against Enterovirus 71 clinical isolate H08300 461#812 infected in human RD cells assessed as cell viability after 3 days by MTS assay. Type of series: functional, organism-based. As to conditions: Enterovirus A, isolate H08300 461#812, RD, 72 h.
The test system of series [7] is Enterovirus A71. Description: Antiviral activity against Enterovirus 71 clinical isolate TW/1956/05 infected in human RD cells assessed as cell viability after 3 days by MTS assay. The format is functional, organism-based. The conditions noted are these: Enterovirus A, isolate TW/1956/05, RD, 72 h.
Series [8] concerns Enterovirus A71. The series is described as follows: Antiviral activity against Enterovirus 71 clinical isolate 11316 infected in human RD cells assessed as cell viability after 3 days by MTS assay. The format is functional, organism-based. The conditions noted are these: Enterovirus A, isolate 11316, RD, 72 h.
The test system of series [9] is Enterovirus A71. Description: Antiviral activity against Enterovirus 71 clinical isolate TW/96016/08 infected in human RD cells assessed as cell viability after 3 days by MTS assay. The format is functional, organism-based. The conditions noted are these: Enterovirus A, isolate TW/96016/08, RD, 72 h.

A value given as a limit tells only on which side of the number the result lay.

In series [1], `C[C@H]1O[C@@H](n2cnc3c(NCc4ccccc4)ncnc32)[C@H](O)[C@@H]1O` registered a cytotoxic concentration (CC50) above 366 µM. The selectivity ratio in [2] was above 54. Also, in series [3], the EC50 is 6.7 µM.

In series [1], `OC[C@H]1O[C@@H](n2cnc3c(NCCCCc4ccccc4)ncnc32)[C@H](O)[C@@H]1O` showed a CC50 above 313 µM. The EC50 in series [3] was above 250 µM.

`OC[C@H]1O[C@@H](n2cnc3c(OCCc4ccccc4)ncnc32)[C@H](O)[C@@H]1O` yielded a CC50 in series [1] of 8.5 µM. In addition, the EC50 in [3] is above 8.5 µM.

Turning to `OC[C@H]1O[C@@H](n2cnc3c(NCOCc4ccccc4)ncnc32)[C@H](O)[C@@H]1O`, the half-maximal cytotoxic concentration (CC50) in series [1] came out at 525 µM. The selectivity ratio in [2] turned out to be 175. Moreover, in [3], the concentration for a half-maximal effect (EC50) came out at 3 µM.

With `OC[C@H]1O[C@@H](n2cnc3c(NCCCc4ccccc4)ncnc32)[C@H](O)[C@@H]1O`, the midpoint of cytotoxicity in series [1], the CC50, lay at 189 µM. For the same compound, in [2], the selectivity ratio amounted to 105. Further, the concentration giving a half-maximal response (EC50) in [3] was determined as 1.8 µM.

As to `OC[C@H]1O[C@@H](n2cnc3c(NCCOc4ccccc4)ncnc32)[C@H](O)[C@@H]1O`, in [1], the CC50 is 107 µM. In [2], the selectivity ratio turned out to be 25. In series [3], the EC50 is 4.3 µM.

In the case of `OC[C@H]1O[C@@H](n2cnc3c(NCCc4ccccc4)ncnc32)[C@H](O)[C@@H]1O`, the EC50 is 3.7 µM in series [4]; 8.3 µM in series [5]; 1.9 µM in series [6]; 2.7 µM in series [7]; 8.2 µM in series [8]; 5.6 µM in series [9]. Moreover, the EC50 in series [3] stood at 1.8 µM. In series [1], this compound displayed a CC50 of 221 µM. Besides, the selectivity ratio in series [2] came out at 123.

Take `OC[C@H]1O[C@@H](n2cnc3c(NCCOc4ccccc4)ncnc32)C[C@@H]1O`: the 50% cytotoxic concentration (CC50) in series [1] was above 337 µM. Moreover, the EC50 in series [3] was above 135 µM.

`OC[C@H]1O[C@@H](n2cnc3c(NCc4ccccc4)ncnc32)[C@H](O)[C@@H]1O` [N6-BENZYLADENOSINE] displayed a CC50 in [1] of 4 µM. Further, the selectivity ratio in series [2] was 14. Also, the half-maximal effective concentration (EC50) in series [3] amounted to 0.28 µM.

In the case of `OC[C@H]1O[C@@H](n2cnc3c(NCc4ccco4)ncnc32)[C@H](O)[C@@H]1O` [KINETIN RIBOSIDE], the CC50 in [1] came out at 7.8 µM. Besides, the selectivity ratio in series [2] is 5.6. In addition, the EC50 in series [3] was 1.4 µM.

`OC[C@H]1O[C@@H](n2cnc3c(OCCCc4ccccc4)ncnc32)[C@H](O)[C@@H]1O` registered a CC50 in series [1] of 182 µM. In addition, in [3], the EC50 is above 182 µM.

The compound `c1ccc(CNc2ncnc3nc[nH]c23)cc1` [6-BENZYLAMINOPURINE] returned a cytotoxic concentration (CC50) in [1] of 547 µM. The selectivity ratio in series [2] was 1300. Besides, the EC50 in series [3] was determined as 0.42 µM.

In [1], `O=C(Nc1ncnc2c1ncn2C(CO)OC(CO)CO)c1ccccc1` (stereo unspecified) displayed a CC50 above 335 µM. Also, the EC50 in [3] is above 335 µM.

`CC(C)=CCNc1ncnc2c1ncn2[C@@H]1O[C@H](CO)[C@@H](O)[C@H]1O` [RIBOPRINE] yielded a CC50 in series [1] of 5.8 µM. The selectivity ratio in series [2] amounted to 5.8. Besides, the EC50 in [3] was determined as 1 µM.

`OC[C@H]1O[C@@H](n2cnc3c(NCc4ccccc4)ncnc32)C[C@@H]1O` came in with a CC50 in [1] above 366 µM. Further, the EC50 in series [3] is above 146 µM.

In turn, `Cn1cc(CNc2ncnc3c2ncn3[C@@H]2O[C@H](CO)[C@@H](O)[C@H]2O)nn1` yielded a 50% cytotoxic concentration (CC50) in series [1] of 136 µM. In addition, the EC50 in series [3] is above 136 µM.

Compound `OC[C@H]1O[C@@H](n2cnc3c(NCCCOc4ccccc4)ncnc32)[C@H](O)[C@@H]1O` showed a CC50 in series [1] above 311 µM. Moreover, the EC50 in series [3] was above 311 µM.

Take `OC[C@H]1O[C@@H](n2cnc3c(NCc4cn(Cc5ccccc5)nn4)ncnc32)[C@H](O)[C@@H]1O`: the CC50 in series [1] was above 285 µM. Besides, the EC50 in series [3] was above 228 µM.

On to `OCCn1cc(CNc2ncnc3c2ncn3[C@@H]2O[C@H](CO)[C@@H](O)[C@H]2O)nn1`, for which the CC50 in [1] is 317 µM. Besides, in series [3], the 50% effective concentration (EC50) was above 317 µM.

`OC[C@H]1O[C@@H](n2cnc3c(NCc4cn(COCc5ccccc5)nn4)ncnc32)[C@H](O)[C@@H]1O` displayed a CC50 in [1] of 116 µM. For the same compound, the EC50 in [3] is above 116 µM.

For `OC[C@H]1O[C@@H](n2cnc3c(NCCCc4ccccc4)ncnc32)C[C@@H]1O`, the CC50 in [1] was above 271 µM. Besides, in [3], the 50% effective concentration (EC50) was above 271 µM.

In [1], `OC[C@H]1O[C@@H](n2cnc3c(OCc4ccccc4)ncnc32)[C@H](O)[C@@H]1O` returned a CC50 of 191 µM. In addition, the selectivity ratio in series [2] came to 37. Besides, in [3], the EC50 was determined as 5.1 µM.

As to `OC[C@H]1O[C@@H](n2cnc3c(NCCc4ccccc4)ncnc32)C[C@@H]1O`, the CC50 in series [1] was above 352 µM. Besides, the EC50 in series [3] is above 281 µM.

`CC(C)=CCNc1ncnc2nc[nH]c12` came in with a CC50 in series [1] of 325 µM. For the same compound, the EC50 in series [3] is above 325 µM.

For `OC[C@H]1O[C@@H](n2cnc3c(NC/C=C/c4ccccc4)ncnc32)[C@H](O)[C@@H]1O`, the EC50 is 1.16 µM in series [4]; 2.5 µM in [5]; 0.38 µM in series [6]; 1 µM in series [7]; 2.2 µM in [8]; 2 µM in series [9]. In addition, the EC50 in series [3] was 0.66 µM. Moreover, half-maximal cytotoxicity in [1] (CC50) was put at 426 µM. Moreover, the selectivity ratio in series [2] came to 645.

With `C[C@H]1O[C@@H](n2cnc3c(NCCc4ccccc4)ncnc32)[C@H](O)[C@@H]1O`, it took 463 µM to reach half-maximal cytotoxicity in series [1] (CC50). Further, in series [3], the EC50 was above 281 µM.

`O=C(Nc1ncnc2c1ncn2[C@@H]1O[C@H](CO)[C@@H](O)[C@H]1O)c1ccccc1` displayed a CC50 in series [1] above 337 µM. Moreover, the selectivity ratio in [2] was above 28. Moreover, in series [3], the EC50 is 12 µM.

Take `OC[C@H]1O[C@@H](n2cnc3c(NCC#Cc4ccccc4)ncnc32)[C@H](O)[C@@H]1O`: the CC50 in series [1] came to 72 µM. Besides, in series [2], the selectivity ratio amounted to 124. The EC50 in series [3] was 0.58 µM.

For the compound `C=CCC#CCNc1ncnc2c1ncn2[C@@H]1O[C@H](CO)[C@@H](O)[C@H]1O`, the CC50 in series [1] is above 434 µM. Further, the selectivity ratio in [2] was above 88. The EC50 in [3] is 4.9 µM.

In turn, `OC[C@H]1O[C@@H](n2cnc3c(Nc4ccccc4)ncnc32)[C@H](O)[C@@H]1O` [N6-PHENYLADENOSINE] returned a CC50 in series [1] of 372 µM. Besides, the EC50 in series [3] is above 291 µM.
